Among the data in patent US9896481B2, “Modified mini-hepcidin peptides and methods of using thereof” (priority 2011, dated 2018) are EC50 and DC50 values, retold here.

Structures are written as SMILES. Starred links: 1 amine or outer side, 2 acyl side, 3 side chain; linkers in the order of their positions; H or OH if unused. Positions of bridges follow the written chain, without caps; N, C: chain ends. Non-standard residues stand in square brackets, D forms with d. Residues, ends and D or L forms follow the SMILES beside them. *: point of attachment. PEG12 = NCCOCCOCCOCCOCCOCCOCCOCCOCCOCCOCCOCCOCCC(=O)O; X1 = O=C(C[C@H](N[*:1])C(c1ccccc1)c1ccccc1)[*:2]; dDip = N[C@@H](C(=O)O)C(c1ccccc1)c1ccccc1; Oic = O=C(O)[C@@H]1C[C@@H]2CCCC[C@@H]2N1; Dip = N[C@H](C(=O)O)C(c1ccccc1)c1ccccc1; Palmitoyl = CCCCCCCCCCCCCCCC(=O)*; X2 = O=C(C1CCC(CN[*:1])CC1)[*:2]; Cysteamide = C(CS[*:3])N[*:1]; Chg = N[C@H](C(=O)O)C1CCCCC1; Phg = N[C@H](C(=O)O)c1ccccc1; Tle = CC(C)(C)[C@H](N)C(=O)O; Inp = O=C(O)C1CCNCC1 Bounds are passed on as bounds.

One assay addresses T1, ferroportin tagged at the C-terminus with green fluorescent protein (Fpn-GFP) (Mus musculus, UniProt Q9JHI9).
T1 construct: expressed in transfected cells; host or cells: ECR293/Fpn-GFP (stably transfected, ponasterone-inducible)
T1 sequence (Q9JHI9 1-570): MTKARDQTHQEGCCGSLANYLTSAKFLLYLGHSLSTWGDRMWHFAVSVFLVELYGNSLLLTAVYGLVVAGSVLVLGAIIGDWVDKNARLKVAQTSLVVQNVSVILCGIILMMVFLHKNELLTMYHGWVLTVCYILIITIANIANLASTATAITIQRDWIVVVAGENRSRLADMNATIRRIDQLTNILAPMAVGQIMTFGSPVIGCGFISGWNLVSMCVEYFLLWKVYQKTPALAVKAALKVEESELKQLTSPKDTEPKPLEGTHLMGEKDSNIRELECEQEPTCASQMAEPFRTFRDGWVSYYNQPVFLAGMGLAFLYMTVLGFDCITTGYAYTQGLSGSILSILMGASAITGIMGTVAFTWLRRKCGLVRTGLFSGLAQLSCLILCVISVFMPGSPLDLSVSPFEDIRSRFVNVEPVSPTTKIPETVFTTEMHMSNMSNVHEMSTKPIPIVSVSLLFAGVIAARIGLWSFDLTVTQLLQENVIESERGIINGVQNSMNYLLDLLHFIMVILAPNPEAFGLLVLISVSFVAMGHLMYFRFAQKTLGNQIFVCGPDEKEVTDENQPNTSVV
The assay is described as follows: Flow cytometry of ferroportin-GFP degradation in ECR293/Fpn-GFP cells. It counts as cell-based. As to conditions: Table 1; 24 h peptide treatment; 50% of maximal loss of fluorescence by Hep25; read-out: EC50. How it is done:
In vitro activity may be measured by the dose-dependent loss of fluorescence of cells engineered to display ferroportin fused to green fluorescent protein as in Nemeth et al. (2006) Blood 107:328-33. Aliquots of cells are incubated for 24 hours with graded concentrations of a reference preparation of Hep25 or a mini-hepcidin. As provided herein, the EC50 values are provided as the concentration of a given compound (e.g. peptide) that elicits 50% of the maximal loss of fluorescence generated by the reference Hep25 preparation.
Mutational studies indicate that C326, the cysteine residue at position 326 of human ferroportin, is the critical residue involved in binding hepcidin. Thus, various N-terminal fragments of Hep25 containing a thiol, i.e. Hep 4-7, Hep3-7, Hep3-8, Hep3-9, Hep1-7, Hep1-8, Hep1-9, and Hep1-10 C7A, were chemically synthesized, refolded and their activities relative to Hep25 were assayed using flow-cytometric quantitation of the ferroportin-GFP degradation, iron efflux estimation based on measurements of cellular ferritin, and radioisotopic iron efflux studies.
The activity of peptides of the present invention was measured by flow cytometry as previously described. See Nemeth et al. (2006) Blood 107:328-333, which is herein incorporated by reference. ECR293/Fpn-GFP, a cell line stably transfected with a ponasterone-inducible ferroportin construct tagged at the C-terminus with green fluorescent protein was used. See Nemeth et al. (2004) Science 306:2090-2093, which is herein incorporated by reference. Briefly, the cells were plated on poly-D-lysine coated plates in the presence of 20 μM FAC, with or without 10 μM ponasterone. After 24 hours, ponasterone was washed off, and cells were treated with peptides for 24 hours. Cells were then trypsinized and resuspended at 1×10^6 cells/ml, and the intensity of green fluorescence was analyzed by flow cytometry. Flow cytometry was performed on FAC SCAN (fluorescence activated cell scanner) Analytic Flow Cytometer (Becton Dickinson, San Jose, Calif.) with […] version 3.3 software (Becton Dickinson). Cells not induced with ponasterone to express Fpn-GFP were used to establish a gate to exclude background fluorescence. Cells induced with ponasterone, but not treated with any peptides, were used as the positive control. Each peptide was tested over the range of concentrations (0, 0.01, 0.03, 0.1, 0.3, 1, 3 and 10 μM). Each peptide treatment was repeated independently 3 to 6 times. For each concentration of peptide, the results were expressed as a fraction of the maximal activity (FHep25) of Hep25 (in the dose range 0.01-10 μM), according to the formula 1−((Fx−FHep25)/(Funtreated−FHep25)), where F was the mean of the gated green fluorescence and x was the peptide.
Regarding `CC[C@H](C)[C@H](NC(=O)[C@@H]1CSSC[C@H](N)C(=O)N[C@@H](CC(=O)O)C(=O)N[C@@H]([C@@H](C)O)C(=O)N[C@@H](Cc2c[nH]cn2)C(=O)N[C@@H](Cc2ccccc2)C(=O)N2CCC[C@H]2C(=O)N[C@@H]([C@@H](C)CC)C(=O)N1)C(=O)N[C@@H](Cc1ccccc1)C(N)=O` [Cyc-1] (H-CDTHFPICIF-NH2; disulfide 1-8; N-terminus assumed), the EC50 was found to be 300 nM. For the molecule `C[C@@H](O)[C@H](NC(=O)[C@@H](N)CC(=O)O)C(=O)N[C@@H](Cc1c[nH]cn1)C(=O)N[C@H](C(=O)N1CCC[C@H]1C(=O)N[C@@H](CS)C(=O)N[C@@H](CS)C(=O)N[C@@H](CS)C(=O)N[C@H](C(N)=O)C(c1ccccc1)c1ccccc1)C(c1ccccc1)c1ccccc1` [PR46] (H-DTH[Dip]PCCC[Dip]-NH2; N-terminus assumed), the EC50 turned out to be 80 nM.

The assay is the same for the next values; noted with them: Table 1; 24 h peptide treatment; 50% of maximal loss of fluorescence by Hep25; read-out: EC50 (the source's name).
As to `CC[C@H](C)[C@H](NC(=O)[C@H](CS)NC(=O)[C@@H](NC(=O)[C@@H]1CCCN1C(=O)C[C@H](NC(=O)[C@H](Cc1c[nH]cn1)NC(=O)[C@@H](NC(=O)[C@@H](N)CC(=O)O)[C@@H](C)O)C(c1ccccc1)c1ccccc1)[C@@H](C)CC)C(=O)N[C@@H](Cc1ccccc1)C(N)=O` [F4bhDpa] (H-DTH[X1]PICIF-NH2; N-terminus assumed), the DC50 was determined as 80 nM. Same read-out and setting: for `CC(C)(C)[C@H](NC(=O)[C@@H](N)CC(=O)O)C(=O)N[C@@H](Cc1c[nH]cn1)C(=O)N[C@H](C(=O)N1[C@H](C(=O)N[C@H](C(=O)N[C@@H](CS)C(=O)N[C@H](C(=O)N[C@@H](Cc2ccccc2)C(N)=O)C2CCCCC2)C2CCCCC2)C[C@@H]2CCCC[C@@H]21)c1ccccc1` [PR10] (H-D[Tle]H[Phg][Oic][Chg]C[Chg]F-NH2) the value was greater than 3000 nM; for `CC(C)(C)[C@H](NC(=O)[C@@H](N)CC(=O)O)C(=O)N[C@@H](Cc1c[nH]cn1)C(=O)N1CCC[C@H]1C(=O)N1[C@H](C(=O)N[C@H](C(=O)N[C@@H](CS)C(=O)N[C@H](C(=O)N[C@@H](Cc2ccccc2)C(N)=O)C2CCCCC2)C2CCCCC2)C[C@@H]2CCCC[C@@H]21` [PR11] (H-D[Tle]HP[Oic][Chg]C[Chg]F-NH2), greater than 3000 nM.

Staying with this assay, now noted: read-out: EC50.
For the molecule `N=C(N)NCCC[C@@H]1NC(=O)C2CCC(CC2)CNC(=O)[C@@H](C(c2ccccc2)c2ccccc2)NC(=O)C2CCN(CC2)C(=O)[C@@H](N)CSSCCNC(=O)[C@H](C(c2ccccc2)c2ccccc2)NC(=O)C2CCN(CC2)C(=O)C2CCC(CC2)CNC1=O` [PR-1], the half-maximal effective concentration (EC50) worked out at 1500 nM. Consider `N=C(N)NCCC[C@@H]1NC(=O)C2CCC(CC2)CNC(=O)[C@@H](C(c2ccccc2)c2ccccc2)NC(=O)[C@@H]2CCCN2C(=O)[C@@H](N)CSSCCNC(=O)[C@H](C(c2ccccc2)c2ccccc2)NC(=O)C2CCN(CC2)C(=O)C2CCC(CC2)CNC1=O` [PR-2] (H-CP[dDip][X2]R[X2][Inp][Dip]-Cysteamide; disulfide 1-C), for which the concentration for a half-maximal effect (EC50) worked out at 2000 nM.

For the molecule `N=C(N)NCCC[C@@H]1NC(=O)C2CCC(CC2)CNC(=O)[C@@H](C(c2ccccc2)c2ccccc2)NC(=O)[C@H]2CCCN2C(=O)[C@@H](N)CSSCCNC(=O)[C@H](C(c2ccccc2)c2ccccc2)NC(=O)C2CCN(CC2)C(=O)C2CCC(CC2)CNC1=O` [PR-3] (H-C[dP][dDip][X2]R[X2][Inp][Dip]-Cysteamide; disulfide 1-C), the 50% effective concentration (EC50) was determined as 1000 nM. Still for that read-out and setting: for `N=C(N)NCCC[C@@H]1NC(=O)C2CCC(CC2)CNC(=O)[C@@H](C(c2ccccc2)c2ccccc2)NC(=O)CNC(=O)[C@@H](N)CSSCCNC(=O)[C@H](C(c2ccccc2)c2ccccc2)NC(=O)C2CCN(CC2)C(=O)C2CCC(CC2)CNC1=O` [PR-4] (H-CG[dDip][X2]R[X2][Inp][Dip]-Cysteamide; disulfide 1-C) the value was 2000 nM.

Still in this assay, the particulars now being: read-out: EC50 (nM) in vitro; Table 3.
For the molecule `CCCCCCCCCCCCCCCC(=O)NCCOCCOCCOCCOCCOCCOCCOCCOCCOCCOCCOCCOCCC(=O)N[C@H](Cc1ccccc1)C(=O)N[C@@H](C(=O)N[C@H](CS)C(=O)N[C@@H](C(=O)N1CCC[C@@H]1C(=O)N[C@@H](C(=O)N[C@H](Cc1c[nH]cn1)C(=O)N[C@@H](C(=O)N[C@H](CC(=O)O)C(N)=O)[C@H](C)O)C(c1ccccc1)c1ccccc1)[C@H](C)CC)[C@H](C)CC` [PR47, R4-F-I-C-I-P-Dpa-H-T-D] ({Palmitoyl-PEG12}-[dF][dI][dC][dI][dP][dDip][dH][dT][dD]-NH2), the half-maximal effective concentration (EC50) worked out at 50 nM.

As to `CCCCCCCCCCCCCCCC(=O)NCCOCCOCCOCCOCCOCCOCCOCCOCCOCCOCCOCCOCCC(=O)N[C@@H](C(=O)N[C@@H](C(=O)N[C@H](CS)C(=O)N[C@@H](C(=O)N1CCC[C@@H]1C(=O)N[C@@H](C(=O)N[C@H](Cc1c[nH]cn1)C(=O)N[C@@H](C(=O)N[C@H](CC(=O)O)C(N)=O)[C@H](C)O)C(c1ccccc1)c1ccccc1)[C@H](C)CC)[C@H](C)CC)C(c1ccccc1)c1ccccc1` [PR48, R4-Dpa-I-C-I-P-Dpa-H-T-D] ({Palmitoyl-PEG12}-[dDip][dI][dC][dI][dP][dDip][dH][dT][dD]-NH2), the concentration for a half-maximal effect (EC50) amounted to 50 nM. Same read-out and setting: for `CCCCCCCCCCCCCCCC(=O)NCCOCCOCCOCCOCCOCCOCCOCCOCCOCCOCCOCCOCCC(=O)N[C@H](Cc1ccccc1)C(=O)N[C@@H](C(=O)N[C@H](CS)C(=O)N[C@@H](C(=O)N1CCC[C@@H]1C(=O)N[C@@H](C(=O)N[C@H](Cc1c[nH]cn1)C(N)=O)C(c1ccccc1)c1ccccc1)[C@H](C)CC)[C@H](C)CC` [PR49, R4-F-I-C-I-P-Dpa-H] ({Palmitoyl-PEG12}-[dF][dI][dC][dI][dP][dDip][dH]-NH2) the value was less than 10 nM. Same read-out and setting: for `CCCCCCCCCCCCCCCC(=O)NCCOCCOCCOCCOCCOCCOCCOCCOCCOCCOCCOCCOCCC(=O)N[C@@H](C(=O)N[C@@H](C(=O)N[C@H](CS)C(=O)N[C@@H](C(=O)N1CCC[C@@H]1C(=O)N[C@@H](C(=O)N[C@H](Cc1c[nH]cn1)C(N)=O)C(c1ccccc1)c1ccccc1)[C@H](C)CC)[C@H](C)CC)C(c1ccccc1)c1ccccc1` [PR50, R4-Dpa-I-C-I-P-Dpa-H] ({Palmitoyl-PEG12}-[dDip][dI][dC][dI][dP][dDip][dH]-NH2) the value was less than 10 nM; for `CCCCCCCCCCCCCCCC(=O)NCCOCCOCCOCCOCCOCCOCCOCCOCCOCCOCCOCCOCCC(=O)N[C@H](Cc1ccccc1)C(=O)N[C@@H](C(=O)N[C@H](CS)C(=O)N[C@@H](C(=O)N1CCC[C@@H]1C(=O)N[C@@H](C(=O)N[C@H](Cc1c[nH]cn1)C(=O)N[C@@H](C(=O)N[C@H](CC(=O)O)C(N)=O)[C@H](C)O)C(c1ccccc1)c1ccccc1)C(C)C)C(C)C` [PR51, R4-F-V-C-V-P-Dpa-H-T-D] ({Palmitoyl-PEG12}-[dF][dV][dC][dV][dP][dDip][dH][dT][dD]-NH2), 100 nM; for `CCCCCCCCCCCCCCCC(=O)NCCOCCOCCOCCOCCOCCOCCOCCOCCOCCOCCOCCOCCC(=O)N[C@H](Cc1ccccc1)C(=O)N[C@H](CC(C)C)C(=O)N[C@H](CS)C(=O)N[C@H](CC(C)C)C(=O)N1CCC[C@@H]1C(=O)N[C@@H](C(=O)N[C@H](Cc1c[nH]cn1)C(=O)N[C@@H](C(=O)N[C@H](CC(=O)O)C(N)=O)[C@H](C)O)C(c1ccccc1)c1ccccc1` [PR52, R4-F-L-C-L-P-Dpa-H-T-D] ({Palmitoyl-PEG12}-[dF][dL][dC][dL][dP][dDip][dH][dT][dD]-NH2), less than 10 nM.

Staying with this assay, now noted: read-out: EC50; Table 1; 24 h peptide treatment; 50% of maximal loss of fluorescence by Hep25.
`CC[C@H](C)[C@H](NC(=O)[C@H](CS)NC(=O)[C@@H](NC(=O)[C@@H]1CCCN1C(=O)[C@@H](NC(=O)[C@@H](N)CC(=O)O)C(c1ccccc1)c1ccccc1)[C@@H](C)CC)C(=O)N[C@@H](Cc1ccccc1)C(N)=O` [PR40] (H-D[Dip]PICIF-NH2): the EC50 worked out at 70 nM.
